{
  "source": "patent US20080226718A1",
  "about": "“Indole and Azaindole Derivatives For the Treatment of Inflammatory and Autoimmune Diseases” (Brane Discovery S.r.l, priority 2005, published 2008)",
  "key": {"[1]": {"system": "encephalitogenic lymphocytes", "experiment": "Spontaneous adhesion of encephalitogenic T cells on purified VCAM-1", "format": "cell-based, SJL mice", "method": "Spontaneous adhesion of encephalitogenic lymphocytes was measured in adhesion assays on purified ICAM-1 and VCAM-1 as previously described (Constantin G. et al., J. Immunol. 162, 1144-1149, 1999). Autoreactive T cells were obtained from SJL mice immunized with PLP139-151 as described (Piccio L. et al., J. Immunol. 168, 1940-1949, 2002). Lymphocytes were treated with test compound at concentrations between 5-100 μM for 1 h, while control/untreated cells were treated with vehicle (DMSO). Results are expressed as percentage of inhibition over control (=100%) ±S.D and are the mean of three-four experiments.\nICAM-1 and VCAM-1 are adhesion molecules from the family of immunoglobulins and control the migration of lymphocytes through the endothelium during inflammatory responses. Encephalitogenic T cells are activated lymphocytes displaying spontaneous adhesion on ICAM-1 and VCAM-1 and have increased migration capacities in inflammation sites. Spontaneous adhesion of encephalitogenic lymphocytes was measured in adhesion assays on purified ICAM-1 and VCAM-1 as described in the method."}, "NADPH-oxidase [2]": {"system": "NADPH-oxidase", "experiment": "Respiratory burst (H2O2 assay), NADPH-oxidase activation in PMNs", "format": "cell-based", "settings": "PMA 200 ng/ml; 10, 50, 100 μM; FIG. 1a", "method": "(§1) NADPH-oxidase activation was measured as induction of H2O2 release (derived from dismutation of O2^−) triggered in PMNs and monocytes by PMA (200 ng/ml). Briefly, PMNs and monocytes were pretreated at 37° C. for 30-60 min with test compound at different concentrations, and stimulated with phorbol 12-myristate 13-acetate (PMA, 200 ng/ml) dissolved in 0.5 ml of a standard reaction mixture. Release of H2O2 was evaluated in real time at time points of 5 min by using a microplate fluorescence reader (Perkin-Elmer). Results are expressed as nmoles of H2O2 released over time by 10^6 cells. Shown are dose-response curves of inhibitory effect on H2O2 release over 60 min."}, "NADPH-oxidase [3]": {"system": "NADPH-oxidase", "experiment": "Respiratory burst (H2O2 assay), NADPH-oxidase activation in monocytes", "format": "cell-based", "settings": "PMA 200 ng/ml; 10, 50, 100 μM; FIG. 1b", "method": "as §1"}},
  "data": [
    {"smiles": "COC(=O)c1[nH]c2cc(OC)c(OC)cc2c1-c1ccc(OC)cc1", "note": "[Example 1]", "values": [
      {"measurement": "Blocking spontaneous adhesion to VCAM-1, in words", "setting": "[1]", "result": "very efficient"},
      {"measurement": "inhibition at 5 µM", "setting": "[1]; Mus musculus, Lymphocyte, [cpd] 5 μM, 1 h, read-out: Inhibition of Spontaneous Adhesion in encephalitogenic lymphocytes (% of control/non-treated cells) VCAM-1", "result": 46, "unit": "%"},
      {"measurement": "inhibition at 10 µM", "setting": "[1]; Mus musculus, Lymphocyte, [cpd] 10 μM, 1 h, read-out: Inhibition of Spontaneous Adhesion in encephalitogenic lymphocytes (% of control/non-treated cells) VCAM-1 (converted)", "result": 66, "unit": "%"},
      {"measurement": "inhibition at 25 µM", "setting": "[1]; Mus musculus, Lymphocyte, [cpd] 25 μM, 1 h, read-out: Inhibition of Spontaneous Adhesion in encephalitogenic lymphocytes (% of control/non-treated cells) VCAM-1 (converted)", "result": 74, "unit": "%"},
      {"measurement": "inhibition at 50 µM", "setting": "[1]; Mus musculus, Lymphocyte, [cpd] 50 μM, 1 h, read-out: Inhibition of Spontaneous Adhesion in encephalitogenic lymphocytes (% of control/non-treated cells) VCAM-1 (converted)", "result": 92.4, "unit": "%"},
      {"measurement": "NADPH-oxidase activation (H2O2 release) in PMNs, in words", "setting": "NADPH-oxidase [2]", "result": "inhibits NADPH-oxidase activation"},
      {"measurement": "NADPH-oxidase activation (H2O2 release) in monocytes, in words", "setting": "NADPH-oxidase [3]", "result": "inhibits NADPH-oxidase activation"}
    ]}
  ]
}
